Like-named read-outs stand apart in the source and are kept apart here.

The assay has as its system Mycosphaerella graminicola; Anamorph: Septoria tritici; Bayer Code SEPTTR. The assay can be described thus: Leaf blotch of wheat, foliar fungicide treatment, one day protectant (1DP) or three day curative (3DC). The assay is classed as in vivo, Septoria tritici on wheat plants (variety Yuma). The settings on record: Zymoseptoria tritici, rating of percent disease control.

Setting [1] is: 24 h, one day protectant, read-out: SETTTR 1DP 25 ppm.
The mark [2] stands for this setting: 24 h, one day protectant, read-out: SEPTTR 1DP 100 ppm.
Where [3] appears, read: 72 h, three day curative, read-out: SEPTTR 3DC 25 ppm.
Setting [4] is: 72 h, three day curative, read-out: SEPTTR 3DC 100 ppm.
Setting [5] is: 24 h, one day protectant (1DP), read-out: SETTTR 1DP 25 ppm.
The mark [6] stands for this setting: 24 h, one day protectant (1DP), read-out: SEPTTR 1DP 100 ppm.
The mark [7] stands for this setting: 72 h, three day curative (3DC), read-out: SEPTTR 3DC 25 ppm.
[8] abbreviates: 72 h, three day curative (3DC), read-out: SEPTTR 3DC 100 ppm.

With `CC(C)(C)c1ccc(COc2ncc(F)c(N)n2)cc1` [Compound 696], the pest or weed control at 25 ppm by setting is: under setting [1], 76 to 100%; under setting [3], 51 to 75%. The pest or weed control at 100 ppm is, setting by setting: under setting [2], 76 to 100%; under setting [4], 76 to 100%.

As to `O=C(Nc1ccsc1)Nc1nc(OCCc2ccc(Cl)cc2)ncc1F` [Compound 697], the pest or weed control at 25 ppm runs as follows: under setting [1], 0 to 25%; under setting [3], 26 to 50%. Moreover, the pest or weed control at 100 ppm was in the range of 0 to 25% under setting [2] and 26 to 50% under setting [4].

`COc1ccc(COc2ncc(F)c(N)n2)c(Cl)c1OC` [Compound 698]: the pest or weed control at 25 ppm by setting is: under setting [1], 76 to 100%; under setting [3], 76 to 100%. Further, the pest or weed control at 100 ppm runs as follows: under setting [2], 76 to 100%; under setting [4], 76 to 100%.

On to `Nc1nc(OCc2cnccn2)ncc1F` [Compound 699], for which the pest or weed control at 25 ppm lay in the range of 76 to 100% under setting [1] and 51 to 75% under setting [3]. Besides, the pest or weed control at 100 ppm reads like this: under setting [2], 76 to 100%; under setting [4], 76 to 100%.

For `Fc1ccc(COc2ncc(F)c(N/N=C/c3ccccc3Cl)n2)cc1` [Compound 700], the pest or weed control at 25 ppm was in the range of 0 to 25% under setting [1] and 26 to 50% under setting [3]. Further, the pest or weed control at 100 ppm fell in the range of 51 to 75% under setting [2] and 76 to 100% under setting [4].

`Cc1ccc(COc2ncc(F)c(NNC3CCCCC3)n2)cc1` [Compound 701]: the pest or weed control at 25 ppm by setting is: under setting [1], 0 to 25%; under setting [3], 0 to 25%. In addition, the pest or weed control at 100 ppm reads like this: under setting [2], 76 to 100%; under setting [4], 76 to 100%.

Consider `CC[Si](CC)(CC)Nc1nc(OCc2ccc(OC)c(F)c2)ncc1F` [Compound 702], for which the pest or weed control at 25 ppm is 76 to 100% under setting [1] and 76 to 100% under setting [3]. The pest or weed control at 100 ppm runs as follows: under setting [2], 76 to 100%; under setting [4], 76 to 100%.

In the case of `O=C(Nc1nc(OCc2ccc(F)cc2)ncc1F)c1cccc(CBr)c1` [Compound 703], the pest or weed control at 25 ppm fell in the range of 0 to 25% under setting [1] and 0 to 25% under setting [3]. Moreover, the pest or weed control at 100 ppm was 26 to 50% under setting [2] and 0 to 25% under setting [4].

With `COc1cccc(COc2ncc(F)c(/N=C/N3CCOCC3)n2)c1` [Compound 704], the pest or weed control at 25 ppm was in the range of 76 to 100% under setting [1] and 76 to 100% under setting [3]. The pest or weed control at 100 ppm is, setting by setting: under setting [2], 76 to 100%; under setting [4], 76 to 100%.

On to `Nc1nc(OCc2ccc(C(F)(F)F)cc2)ncc1F` [Compound 705], for which the pest or weed control at 25 ppm runs as follows: under setting [1], 76 to 100%; under setting [3], 51 to 75%. Besides, the pest or weed control at 100 ppm runs as follows: under setting [2], 76 to 100%; under setting [4], 76 to 100%.

Take `CCCNC(=S)Nc1nc(OCc2cccc(C#N)c2)ncc1F` [Compound 706]: the pest or weed control at 25 ppm is 0 to 25% under setting [1] and 0 to 25% under setting [3]. For the same compound, the pest or weed control at 100 ppm reads like this: under setting [2], 76 to 100%; under setting [4], 51 to 75%.

With `CCCCOc1cccc(COc2ncc(F)c(N)n2)c1` [Compound 708], the pest or weed control at 25 ppm was in the range of 76 to 100% under setting [1] and 76 to 100% under setting [3]. The pest or weed control at 100 ppm is 76 to 100% under setting [2] and 76 to 100% under setting [4].

As to `COc1ccc(COc2ncc(F)c(NCOCc3ccccc3)n2)cc1F` [Compound 709], the pest or weed control at 25 ppm is, setting by setting: under setting [1], 0 to 25%; under setting [3], 0 to 25%. The pest or weed control at 100 ppm by setting is: under setting [2], 76 to 100%; under setting [4], 51 to 75%.

In the case of `Fc1ccccc1NC(=S)Nc1nc(OCc2cccs2)ncc1F` [Compound 711], the pest or weed control at 25 ppm lay in the range of 51 to 75% under setting [1] and 26 to 50% under setting [3]. For the same compound, the pest or weed control at 100 ppm is 76 to 100% under setting [2] and 76 to 100% under setting [4].

With `Nc1nc(OCc2ccccc2F)ncc1F` [Compound 713], the pest or weed control at 25 ppm lay within 76 to 100% under setting [1] and 51 to 75% under setting [3]. For the same compound, the pest or weed control at 100 ppm by setting is: under setting [2], 76 to 100%; under setting [4], 76 to 100%.

Regarding `CC(=O)Nc1nc(OC(C)c2ccc(F)cc2)ncc1F` (centres unmarked) [Compound 714], the pest or weed control at 25 ppm by setting is: under setting [1], 76 to 100%; under setting [3], 76 to 100%. In addition, the pest or weed control at 100 ppm by setting is: under setting [2], 76 to 100%; under setting [4], 76 to 100%.

Take `Nc1nc(Oc2cccc([N+](=O)[O-])c2)ncc1F` [Compound 715]: the pest or weed control at 25 ppm by setting is: under setting [1], 26 to 50%; under setting [3], 0 to 25%. Moreover, the pest or weed control at 100 ppm under setting [2] is 51 to 75% and the pest or weed control at 100 ppm under setting [4] was 0 to 25%.

As to `Cc1cccc(Oc2ccc(COc3ncc(F)c(N)n3)cc2)c1` [Compound 716], the pest or weed control at 25 ppm under setting [1] was in the range of 76 to 100% and the pest or weed control at 25 ppm under setting [3] was 76 to 100%. The pest or weed control at 100 ppm is 76 to 100% under setting [2] and 76 to 100% under setting [4].

Consider `Cc1ccc(CNc2nc(OCc3ccc(C)cc3)ncc2F)cc1` [Compound 717], for which the pest or weed control at 25 ppm under setting [1] was in the range of 51 to 75% and the pest or weed control at 25 ppm under setting [3] is 76 to 100%. Also, the pest or weed control at 100 ppm by setting is: under setting [2], 76 to 100%; under setting [4], 76 to 100%.

On to `C/C(=N\Nc1nc(OCc2ccc(C)cc2)ncc1F)c1ccc(C)o1` [Compound 718], for which the pest or weed control at 25 ppm under setting [1] was 26 to 50% and the pest or weed control at 25 ppm under setting [3] lay in the range of 26 to 50%. For the same compound, the pest or weed control at 100 ppm by setting is: under setting [2], 76 to 100%; under setting [4], 26 to 50%.

On to `Nc1nc(OCC2CC2)ncc1F` [Compound 722], for which the pest or weed control at 25 ppm under setting [1] fell in the range of 0 to 25% and the pest or weed control at 25 ppm under setting [3] fell in the range of 0 to 25%. Also, the pest or weed control at 100 ppm reads like this: under setting [2], 0 to 25%; under setting [4], 26 to 50%.

On to `CCCNC(=O)Nc1nc(OCc2ccccc2OC)ncc1F` [Compound 724], for which the pest or weed control at 25 ppm runs as follows: under setting [1], 0 to 25%; under setting [3], 0 to 25%. Besides, the pest or weed control at 100 ppm fell in the range of 26 to 50% under setting [2] and 0 to 25% under setting [4].

As for `Nc1nc(OCc2ccc(I)cc2)ncc1F` [Compound 725], the pest or weed control at 25 ppm was in the range of 76 to 100% under setting [1] and 76 to 100% under setting [3]. For the same compound, the pest or weed control at 100 ppm reads like this: under setting [2], 76 to 100%; under setting [4], 76 to 100%.

On to `COc1ccc(COc2ncc(F)c(/N=C/N(C)C)n2)cc1` [Compound 726], for which the pest or weed control at 25 ppm under setting [1] lay within 76 to 100% and the pest or weed control at 25 ppm under setting [3] is 76 to 100%. Moreover, the pest or weed control at 100 ppm fell in the range of 76 to 100% under setting [2] and 76 to 100% under setting [4].

Consider `C/C(=N\c1nc(OCc2ccc(F)cc2)ncc1F)N(C)C` [Compound 727], for which the pest or weed control at 25 ppm reads like this: under setting [1], 76 to 100%; under setting [3], 76 to 100%. In addition, the pest or weed control at 100 ppm reads like this: under setting [2], 76 to 100%; under setting [4], 76 to 100%.

Regarding `CC#CCOc1ncc(F)c(NC(=O)Nc2ccsc2)n1` [Compound 729], the pest or weed control at 25 ppm runs as follows: under setting [1], 51 to 75%; under setting [3], 51 to 75%. The pest or weed control at 100 ppm lay within 26 to 50% under setting [2] and 51 to 75% under setting [4].

Consider `CC(C)CCOc1ncc(F)c(N)n1` [Compound 731], for which the pest or weed control at 25 ppm reads like this: under setting [1], 0 to 25%; under setting [3], 0 to 25%. For the same compound, the pest or weed control at 100 ppm is, setting by setting: under setting [2], 0 to 25%; under setting [4], 0 to 25%.

As for `Cc1ccccc1COc1ncc(F)c(N)n1` [Compound 733], the pest or weed control at 25 ppm reads like this: under setting [1], 76 to 100%; under setting [3], 76 to 100%. Besides, the pest or weed control at 100 ppm lay within 76 to 100% under setting [2] and 76 to 100% under setting [4].

As to `COc1ccc(Oc2ncc(F)c(NC(=O)Nc3ccsc3)n2)cc1` [Compound 737], the pest or weed control at 25 ppm under setting [5] lay within 0 to 25% and the pest or weed control at 25 ppm under setting [7] lay in the range of 0 to 25%. Also, the pest or weed control at 100 ppm under setting [6] was 0 to 25% and the pest or weed control at 100 ppm under setting [8] was 0 to 25%.

For `CCCCCC(CC)Oc1ncc(F)c(N)n1` (centres unmarked) [Compound 740], under setting [5], the pest or weed control at 25 ppm was 0 to 25%. In addition, the pest or weed control at 100 ppm under setting [6] lay within 0 to 25%.

Consider `Nc1nc(OCc2cc(Cl)cc(C(F)(F)F)c2)ncc1F` [Compound 743], for which the pest or weed control at 25 ppm reads like this: under setting [5], 76 to 100%; under setting [7], 76 to 100%. Further, the pest or weed control at 100 ppm lay within 76 to 100% under setting [6] and 76 to 100% under setting [8].

Consider `CC(C)/C(=N\c1nc(OCc2ccc(F)cc2)ncc1F)N(C)C` [Compound 744], for which the pest or weed control at 25 ppm runs as follows: under setting [5], 76 to 100%; under setting [7], 76 to 100%. Also, the pest or weed control at 100 ppm fell in the range of 76 to 100% under setting [6] and 76 to 100% under setting [8].

`CC#CCOc1ncc(F)c(NC(C)=O)n1` [Compound 745]: the pest or weed control at 25 ppm reads like this: under setting [5], 76 to 100%; under setting [7], 76 to 100%. Further, the pest or weed control at 100 ppm under setting [6] lay in the range of 76 to 100% and the pest or weed control at 100 ppm under setting [8] lay in the range of 76 to 100%.

As to `C#CCOc1ncc(F)c(N)n1` [Compound 746], the pest or weed control at 25 ppm under setting [5] fell in the range of 0 to 25% and the pest or weed control at 25 ppm under setting [7] lay in the range of 0 to 25%. Besides, the pest or weed control at 100 ppm by setting is: under setting [6], 0 to 25%; under setting [8], 76 to 100%.

As to `CC1CC1COc1ncc(F)c(N)n1` (centres unmarked) [Compound 747], the pest or weed control at 25 ppm runs as follows: under setting [5], 0 to 25%; under setting [7], 51 to 75%. In addition, the pest or weed control at 100 ppm under setting [6] fell in the range of 76 to 100% and the pest or weed control at 100 ppm under setting [8] lay within 76 to 100%.

`Nc1nc(OCCOc2ccccc2)ncc1F` [Compound 748]: under setting [5], the pest or weed control at 25 ppm lay within 0 to 25%. Besides, the pest or weed control at 100 ppm under setting [6] fell in the range of 0 to 25%.
